Experimental data: the supplement of paper PMC10307832

Tests used:
Assay in all cases: relative viability (nuclei count vs DMSO), 5 days (fraction); higher = more cells survive
Mirin + Crizotinib = compound: N=C1NC(=O)/C(=C/c2ccc(O)cc2)S1 [Mirin] + C[C@@H](Oc1cc(-c2cnn(C3CCNCC3)c2)cnc1N)c1c(Cl)ccc(F)c1Cl [Crizotinib] (partner 1 µM)
In short: (§1)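 Relative viability was taken as the ratio of nuclei in treated wells to nuclei in vehicle wells. Lung cancer cell lines in 1536-well plates received compounds by pin tool one day after seeding, either one drug alone or a fixed anchor-drug dose plus five library-drug doses (not always all listed) in √10 steps. Nuclei were counted on 4× images after 5 days of treatment, and values are medians of duplicate plates.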

[1] = compound: CCC1=CN=CN=C1N2CCN(CC2)CC3=NC4=C(N3)C=C(C=C4)C(F)(F)F + O=C(CCCCCCC(=O)Nc1ccccc1)NO [Vorinostat] (partner 1 µM)
In short: as §1

Mirin + OSI-027 = compound: N=C1NC(=O)/C(=C/c2ccc(O)cc2)S1 [Mirin] + COc1cccc2cc(-c3nc([C@H]4CC[C@H](C(=O)O)CC4)n4ncnc(N)c34)[nH]c12 [OSI-027] (partner 0.5 µM)
In short: as §1

Cell Line	relative viability (Mirin + Crizotinib; first compound 0.25 µM)	relative viability (Mirin + Crizotinib; first compound 2.5 µM)	relative viability (Mirin + Crizotinib; first compound 7.906 µM)	relative viability (Mirin + Crizotinib; first compound 25 µM)	relative viability ([1]; first compound 0.04 µM)	relative viability ([1]; first compound 0.1265 µM)	relative viability ([1]; first compound 0.4 µM)	relative viability ([1]; first compound 1.265 µM)	relative viability ([1]; first compound 4 µM)	relative viability (Mirin + OSI-027; first compound 0.25 µM)	relative viability (Mirin + OSI-027; first compound 0.7906 µM)	relative viability (Mirin + OSI-027; first compound 2.5 µM)	relative viability (Mirin + OSI-027; first compound 7.906 µM)	relative viability (Mirin + OSI-027; first compound 25 µM)	relative viability (Mirin + Crizotinib; first compound 0.7906 µM)
LOU-NH91	0.759	0.718	0.77	0.902	0.842	0.907	0.927	0.76	0.993	0.737	0.769	0.751	0.731	0.832	–
NCI-H2347	0.759	0.693	0.502	0.631	0.61	0.673	0.649	0.321	0.516	0.459	0.426	0.4	0.476	0.36	0.68
NCI-H1993	0.757	0.845	0.926	0.788	0.846	0.983	0.648	0.816	0.964	0.549	–	0.578	0.496	0.539	0.82
HCC-827	0.98	0.973	0.885	1.07	0.895	0.856	0.788	0.781	0.744	0.785	0.71	0.748	0.737	0.744	0.961
NCI-H661	–	0.861	–	1.17	0.78	0.794	0.757	0.704	0.663	0.755	0.893	0.702	0.62	0.606	1.01
CAL-12T	0.667	0.619	0.573	0.639	0.664	0.8	0.623	0.782	0.568	0.797	–	0.681	0.695	0.525	0.509
PC-14	0.873	0.887	0.945	1.07	0.764	0.756	0.688	0.691	0.657	0.872	0.742	0.792	–	0.728	0.893
NCI-H23	0.403	0.469	0.451	0.337	0.567	0.65	0.453	0.606	0.808	0.725	–	0.544	0.443	0.589	–
SK-LU-1	0.888	1.01	0.765	0.564	0.675	0.74	0.76	0.777	0.68	0.387	0.35	0.333	0.276	0.228	1.05
NCI-H727	1.1	0.799	1.04	0.659	1.22	1.08	1.09	1.03	1.35	0.833	0.596	0.529	0.586	0.877	0.98
HCC-366	0.464	0.44	0.443	0.413	0.365	0.3	0.296	0.332	0.417	0.974	–	0.919	0.711	0.882	0.62
SW 1573	0.681	0.838	0.86	0.624	0.623	1.08	0.756	0.575	0.734	0.616	0.428	0.625	0.524	0.307	0.643
HCC-44	0.817	0.783	0.795	1.07	1.01	1.06	1.09	1.17	1.02	0.441	0.491	0.483	0.428	0.485	0.85
A-427	0.87	0.809	0.881	0.958	0.776	0.836	0.794	0.721	0.809	0.484	–	0.525	0.272	0.411	–
NCI-H441	0.856	0.701	0.365	0.706	0.777	0.8	0.659	0.651	0.868	0.673	0.6	0.598	0.473	0.602	0.794
ABC-1	0.993	0.866	0.918	0.664	–	–	0.989	0.84	1.03	0.442	0.346	0.484	0.467	0.225	1.09
LK-2	0.241	0.238	0.24	0.199	0.245	0.235	0.356	0.223	0.244	0.195	0.154	0.198	0.138	0.146	–
NCI-H2023	0.658	0.585	0.692	0.567	0.561	0.575	0.649	0.556	0.776	0.407	0.466	0.401	0.356	0.285	0.665
NCI-H647	1.07	1.24	1.08	0.596	0.453	0.591	0.414	0.364	0.543	0.759	0.688	0.572	0.645	0.503	1.3
SK-MES-1	1.03	1	1.04	1.19	1.11	1.04	1.01	1.03	1.08	0.584	0.643	0.684	0.558	0.528	1.14
NCI-H3122	0.247	0.266	0.229	0.247	1.04	0.863	1.01	1.03	0.875	0.954	0.809	0.921	0.887	0.902	0.256
LCLC-103H	1.1	1.01	1.17	1.25	0.797	0.685	0.746	0.668	0.717	0.444	0.495	0.515	0.509	0.442	0.978
NCI-H520	0.993	0.715	0.631	0.377	0.854	0.684	0.663	0.576	0.591	0.241	0.289	0.257	0.222	0.177	0.715
NCI-H1755	0.829	0.851	0.931	1.02	0.741	0.699	0.641	0.514	0.827	0.686	0.75	0.662	0.687	0.766	0.892
NCI-H358	0.553	0.536	0.329	0.243	0.695	0.622	0.661	0.586	0.686	0.783	0.843	0.793	0.542	0.368	0.678
NCI-H1734	0.626	0.607	0.663	0.524	0.734	0.803	0.783	0.7	0.814	0.636	0.574	0.525	0.548	0.488	0.669
EPLC-272H	0.83	0.853	0.671	0.779	0.311	0.598	0.373	0.392	0.351	0.339	–	0.241	0.213	0.224	–
NCI-H2228	0.481	0.462	0.469	0.488	–	0.63	0.587	0.693	0.496	0.57	0.44	0.515	0.575	0.538	0.474
